These results are taken from patent publication US20230201217A1 (priority 2019, published 2023).

Series [1] concerns male cynomolgus monkeys. Put plainly: Cardiovascular and respiratory radiotelemetry in conscious cynomolgus monkeys. The format is in vivo, cynomolgus monkey. The protocol:
Clinical observations were performed at approximately 4 and 24 hours post-dosing.

Series [2] has as its system mice. Put plainly: Single-dose oral toxicity. The format is in vivo, mouse. The protocol: Single doses up to 300-400 mg/kg and 800 mg/kg appeared to be generally well tolerated in monkeys and rats, respectively (one monkey treated with 400 mg/kg died in the 2-week GLP study on Day 1 of dosing). […] In mice, mortality was consistently seen following single doses 150 mg/kg. Preliminary 5-day repeat-dose range-finding studies were conducted in mice, rats and monkeys. The definitive 14-day studies in mouse and monkey yielded generally similar results to those observed in the 5-day studies.

Series [3] can be described thus: Stability of oral dosing solution. The format is physicochemical. The source says:
Most preferably, an oral dose of the composition is used. An oral dosing formulation was validated by a GLP study.

The subject of series [4] is healthy volunteers. Put plainly: Phase 1 first-in-human study, safety and tolerability. Further details: key to AE Urinary tract infection (subject A1): Study Drug related / AE Retro-orbital headache (subject A2): Study Drug related / AE Hot coffee burn in hand and right forearm (subject A3): Study Drug related / AE Dry cough (subject A4): Study Drug related / AE Body pain (subject A5): Study Drug related / AE Occipital and frontal headache (subject A6): Study Drug related / AE Nausea (subject A1): Study Drug related / AE Arterial Hypotension (subject A1): Study Drug related / AE Pain - submandibular lymph node (subject A1): Study Drug related: 1 Not related; 2 Possible; 3 Probable. The format is in vivo. The protocol:
None discontinued the study.
Safety was monitored by reported adverse events, hematology, serum chemistries (including electrolytes, renal and liver function, urinalysis, ECG and vital signs. In addition, a neurological examination (mini-mental status exam) including assessment for abnormal eye movement, nystagmus, tremors, reflexes, upper and lower extremity strength, distal sensor perception, intention tremor, the Romberg test, excessive somnolence and mental status were performed.

Series [5] addresses CYP2B6 (Homo sapiens, UniProt P20813). The conditions noted are these: recombinant enzyme.
Description: (§1) Control incubations were performed for each assay with appropriate positive inhibitory controls.
Series [6] addresses CYP2C8 (Homo sapiens, UniProt P10632). The conditions noted are these: recombinant enzyme.
Description: as §1
The target of series [7] is CYP2E1 (Homo sapiens, UniProt P05181). To be noted: recombinant enzyme.
Chain of CYP2E1 (P05181 whole entry): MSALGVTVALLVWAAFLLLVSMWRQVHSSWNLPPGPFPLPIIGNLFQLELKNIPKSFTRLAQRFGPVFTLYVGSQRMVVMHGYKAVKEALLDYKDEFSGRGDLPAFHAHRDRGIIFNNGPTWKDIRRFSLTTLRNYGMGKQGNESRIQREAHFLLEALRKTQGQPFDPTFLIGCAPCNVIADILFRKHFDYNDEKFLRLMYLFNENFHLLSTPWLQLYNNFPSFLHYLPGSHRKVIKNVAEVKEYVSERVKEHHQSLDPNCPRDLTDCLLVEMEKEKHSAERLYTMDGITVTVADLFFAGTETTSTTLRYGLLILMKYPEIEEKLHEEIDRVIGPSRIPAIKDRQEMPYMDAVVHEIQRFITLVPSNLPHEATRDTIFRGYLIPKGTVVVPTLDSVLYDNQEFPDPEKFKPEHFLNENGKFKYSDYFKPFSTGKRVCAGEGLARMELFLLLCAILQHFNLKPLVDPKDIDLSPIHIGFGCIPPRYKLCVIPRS
Description: as §1

Chain of CYP2C8 (P10632 whole entry): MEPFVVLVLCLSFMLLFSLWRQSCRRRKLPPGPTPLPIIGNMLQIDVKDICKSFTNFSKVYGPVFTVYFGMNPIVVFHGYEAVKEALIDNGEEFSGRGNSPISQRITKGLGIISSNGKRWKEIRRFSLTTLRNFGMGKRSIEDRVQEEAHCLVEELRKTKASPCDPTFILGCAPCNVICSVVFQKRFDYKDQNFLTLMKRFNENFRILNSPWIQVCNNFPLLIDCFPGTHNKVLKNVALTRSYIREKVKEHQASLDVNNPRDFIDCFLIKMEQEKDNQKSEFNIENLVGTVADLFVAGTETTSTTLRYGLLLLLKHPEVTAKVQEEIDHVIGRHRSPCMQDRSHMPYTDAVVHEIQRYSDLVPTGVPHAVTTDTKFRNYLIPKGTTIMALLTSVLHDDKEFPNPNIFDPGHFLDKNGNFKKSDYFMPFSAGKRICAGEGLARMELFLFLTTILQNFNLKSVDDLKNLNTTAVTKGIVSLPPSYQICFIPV
Chain of CYP2B6 (P20813 whole entry): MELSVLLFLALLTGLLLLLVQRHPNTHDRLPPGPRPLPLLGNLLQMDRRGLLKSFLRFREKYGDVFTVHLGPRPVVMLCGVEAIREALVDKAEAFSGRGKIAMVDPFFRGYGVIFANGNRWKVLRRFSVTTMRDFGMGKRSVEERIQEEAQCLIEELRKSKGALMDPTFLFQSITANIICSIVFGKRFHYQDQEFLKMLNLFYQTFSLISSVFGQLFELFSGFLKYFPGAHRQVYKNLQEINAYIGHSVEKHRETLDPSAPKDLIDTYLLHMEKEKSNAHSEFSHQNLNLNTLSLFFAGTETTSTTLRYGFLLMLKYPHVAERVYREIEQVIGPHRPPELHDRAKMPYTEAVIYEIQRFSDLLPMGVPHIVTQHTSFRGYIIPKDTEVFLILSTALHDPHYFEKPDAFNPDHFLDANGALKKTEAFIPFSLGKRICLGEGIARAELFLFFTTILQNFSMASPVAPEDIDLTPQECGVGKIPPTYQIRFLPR

As to `COCCC1CC2CN3CCc4c([nH]c5ccccc45)C(C(=O)OC)(C2)C13.Cl` (stereo not shown) [18-MC HCl, 18-Methoxycoronaridine hydrochloride], the “cardiovascular parameters, body temperature, respiratory parameters” value in series [1] (30, 90, or 270 mg/kg single dose) is recorded as “did not affect”. For the same molecule, the “NOEL on the cardiovascular and respiratory systems” value in series [1] (single dose, highest dose tested) was 270 mg/kg. Also, in series [2], the “single doses with mortality consistently seen” value is 150 mg/kg. The “stability of dosing solution” value in series [3] (after 3 freeze-thaw (20° C.) cycles) was “met the required stability criteria”. Further, the “homogeneity, concentration acceptability, solubility and stability of dosing formulation” value in series [3] (after 10 days of refrigerated storage) is listed as “met the applicable ICH criteria”.

For orientation: IC50 means the point on the concentration scale where inhibition reaches its midpoint. As to `COCC[C@H]1CC2CN3CCc4c([nH]c5ccccc45)[C@](C(=O)OC)(C2)[C@H]13` [18-MC, 18-methoxycoronaridine], the serious adverse events entry in series [4] (20 mg single dose, 4 mg twice) is on record as “No serious adverse events occurred”. Also, in series [4] (FIH study), the “dose at which safe in healthy volunteers” value is recorded as “up to 20 mg”. In series [4] (day noted 1), the “AE Arterial Hypotension (subject A1): Severity” value is given as 1, the “AE Arterial Hypotension (subject A1): Study Drug related” value turned out to be 2, the “AE Nausea (subject A1): Severity” value was determined as 1 and the “AE Nausea (subject A1): Study Drug related” value turned out to be 2. In series [4] (day noted 1), the “AE Pain - submandibular lymph node (subject A1): Severity” value came out at 1, the “AE Pain - submandibular lymph node (subject A1): Study Drug related” value is reported as 2, the “AE Retro-orbital headache (subject A2): Severity” value was determined as 1 and the “AE Retro-orbital headache (subject A2): Study Drug related” value is given as 2. In series [4] (day noted 2-30), the “AE Urinary tract infection (subject A1): Severity” value is given as 2 and the “AE Urinary tract infection (subject A1): Study Drug related” value was 1. Further, in series [4] (day noted 4), the “AE Occipital and frontal headache (subject A6): Severity” value is 2; the “AE Occipital and frontal headache (subject A6): Study Drug related” value stood at 1. For the same molecule, in series [4] (day noted 4 (CRF entry error)), the “AE Dry cough (subject A4): Severity” value came to 1 and the “AE Dry cough (subject A4): Study Drug related” value was 3. In series [4] (day noted 7), the “AE Hot coffee burn in hand and right forearm (subject A3): Severity” value stood at 1; the “AE Hot coffee burn in hand and right forearm (subject A3): Study Drug related” value was 1. In series [4] (day noted 30), the “AE Body pain (subject A5): Severity” value came out at 1 and the “AE Body pain (subject A5): Study Drug related” value was 1. Moreover, the IC50 in series [5] is over 100 µM. The IC50 in series [6] came out at 19 µM. The IC50 in series [7] was 28 µM.
